The values below come from ChEMBL document CHEMBL1136171, “Acetylenic TACE inhibitors. Part 1. SAR of the acyclic sulfonamide hydroxamates” (Bioorg Med Chem Lett, 2003).

Data set [1] concerns THP-1. Kind of data set: Inhibition of LPS-stimulated production of TNF-alpha at the dose of 3 uM concentration. It is filed as functional. As to conditions: Homo sapiens.
Data set [2] deals with THP-1. Put plainly: Inhibition of LPS-stimulated production of TNF-alpha, at the dose of 1 uM concentration. Type of data set: functional. The settings on record: for inhibition at 1 µM: Homo sapiens, THP-1.
The next data set deals with T1, Interstitial collagenase (Homo sapiens, UniProt P03956).
T1 sequence (P03956 whole entry): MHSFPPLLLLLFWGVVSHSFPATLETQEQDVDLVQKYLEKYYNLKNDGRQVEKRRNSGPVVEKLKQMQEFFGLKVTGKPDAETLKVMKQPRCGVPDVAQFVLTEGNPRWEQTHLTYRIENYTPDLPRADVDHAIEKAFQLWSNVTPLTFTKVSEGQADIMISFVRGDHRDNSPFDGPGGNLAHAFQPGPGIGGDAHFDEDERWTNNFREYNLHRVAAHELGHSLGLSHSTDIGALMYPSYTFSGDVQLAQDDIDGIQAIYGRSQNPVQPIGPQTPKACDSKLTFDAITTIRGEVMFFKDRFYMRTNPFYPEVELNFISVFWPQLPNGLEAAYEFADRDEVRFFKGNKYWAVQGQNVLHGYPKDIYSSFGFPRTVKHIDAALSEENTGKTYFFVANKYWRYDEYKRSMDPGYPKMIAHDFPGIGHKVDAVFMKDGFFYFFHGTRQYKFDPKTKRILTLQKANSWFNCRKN
Put plainly: In vitro inhibition of Matrix metalloprotein 1.

In data set [3] the target is T2, Disintegrin and metalloproteinase domain-containing protein 17 (Homo sapiens, UniProt P78536). Kind of data set: In vitro inhibition of tumor necrosis factor-alpha converting enzyme.
The target in a further data set is Collagenase 3 (Homo sapiens, UniProt P45452).
The target of data set [4] is Matrix metalloproteinase-9 (Homo sapiens, UniProt P14780).
Description: In vitro inhibition of Matrix metalloprotein-9
In data set [5] the test system is Mus musculus. Put plainly: In vivo percent inhibition against LPS-stimulated production of TNF-alpha in a mouse at a dose of 50 mg/Kg p.o. As to conditions: po, read-out: Inhibition. Type of data set: functional.
Data set [6] has as its target T3, Interstitial collagenase (Homo sapiens) (UniProt P03956).
T3 sequence (whole entry): T1 sequence (P03956 whole entry)
Put plainly: Inhibition of Matrix metalloprotein 1 at 10 uM.

Data set [7] is described as follows: Oral bioavailability in rat at 10 mg/kg of the compound. As to conditions: in vivo. Type of data set: ADME, organism-based.
A short description of data set [8]: Oral bioavailability in monkey at 10 mg/kg of the compound. It is filed as ADME, organism-based. The settings on record: cercopithecidae, in vivo.
Data set [9] has as its system Mus musculus. Kind of data set: Compound was reproducibly active at reducing clinical severity scores expressed as efficacy in mouse p.o. It is filed as functional.
A short description of data set [10]: Oral bioavailability in mouse at 10 mg/kg of the compound. As to conditions: in vivo. It is filed as ADME, organism-based.
A short description of data set [11]: Oral bioavailability in dog at 10 mg/kg of the compound. It is filed as ADME, organism-based, Canis lupus familiaris. As to conditions: in vivo.
For the next data set, the species on record is Homo sapiens. Put plainly: Inhibitory concentration against LPS-stimulated TNF-alpha production in human whole blood. Type of data set: functional.
The species named for data set [12] is Mus musculus. Put plainly: Effective dose in mouse. It is filed as functional.
The subject of data set [13] is Mus musculus. Kind of data set: Compound was reproducibly active at reducing clinical severity scores in mouse p.o. Type of data set: functional.
Data set [14] deals with T2, Disintegrin and metalloproteinase domain-containing protein 17. Put plainly: Inhibition of tumor necrosis factor-alpha converting enzyme. The settings on record: concentration not given here.

The inhibition is the percentage by which the read-out fell short of the control. As usually defined, the IC50 is the concentration that inhibits the measured activity by half. The term bioavailability denotes the share of a dose that reaches the circulation, judged against a reference dose that is usually intravenous. As usually defined, the ED50 is the dose at which the effect has come halfway, by size or by number of responders. One may read the Inhibition as the share of the control response that was lost under treatment.

T2 sequence (P78536 whole entry, the tested form may be a part): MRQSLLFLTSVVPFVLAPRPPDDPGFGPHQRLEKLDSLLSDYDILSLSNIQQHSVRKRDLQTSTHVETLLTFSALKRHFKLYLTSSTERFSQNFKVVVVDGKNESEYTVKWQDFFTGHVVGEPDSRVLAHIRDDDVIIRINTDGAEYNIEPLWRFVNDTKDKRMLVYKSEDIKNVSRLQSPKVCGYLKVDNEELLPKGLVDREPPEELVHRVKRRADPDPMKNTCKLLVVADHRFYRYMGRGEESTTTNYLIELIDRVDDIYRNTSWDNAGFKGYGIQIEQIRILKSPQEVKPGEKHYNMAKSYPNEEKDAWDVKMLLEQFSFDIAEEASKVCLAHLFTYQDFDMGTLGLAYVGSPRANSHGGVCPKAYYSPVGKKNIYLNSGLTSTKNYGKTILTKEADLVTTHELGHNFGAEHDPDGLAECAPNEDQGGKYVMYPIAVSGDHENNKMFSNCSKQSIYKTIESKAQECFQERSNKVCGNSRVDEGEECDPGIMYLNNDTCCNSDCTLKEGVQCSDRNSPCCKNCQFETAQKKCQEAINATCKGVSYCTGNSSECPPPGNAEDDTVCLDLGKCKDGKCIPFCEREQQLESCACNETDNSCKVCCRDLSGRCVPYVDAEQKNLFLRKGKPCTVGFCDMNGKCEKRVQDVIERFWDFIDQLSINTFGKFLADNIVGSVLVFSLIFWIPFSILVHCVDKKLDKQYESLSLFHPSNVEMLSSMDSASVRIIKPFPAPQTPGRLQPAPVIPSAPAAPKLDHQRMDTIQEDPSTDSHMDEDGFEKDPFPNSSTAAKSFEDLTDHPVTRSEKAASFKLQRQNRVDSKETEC
Chain of Matrix metalloproteinase-9 (P14780 whole entry): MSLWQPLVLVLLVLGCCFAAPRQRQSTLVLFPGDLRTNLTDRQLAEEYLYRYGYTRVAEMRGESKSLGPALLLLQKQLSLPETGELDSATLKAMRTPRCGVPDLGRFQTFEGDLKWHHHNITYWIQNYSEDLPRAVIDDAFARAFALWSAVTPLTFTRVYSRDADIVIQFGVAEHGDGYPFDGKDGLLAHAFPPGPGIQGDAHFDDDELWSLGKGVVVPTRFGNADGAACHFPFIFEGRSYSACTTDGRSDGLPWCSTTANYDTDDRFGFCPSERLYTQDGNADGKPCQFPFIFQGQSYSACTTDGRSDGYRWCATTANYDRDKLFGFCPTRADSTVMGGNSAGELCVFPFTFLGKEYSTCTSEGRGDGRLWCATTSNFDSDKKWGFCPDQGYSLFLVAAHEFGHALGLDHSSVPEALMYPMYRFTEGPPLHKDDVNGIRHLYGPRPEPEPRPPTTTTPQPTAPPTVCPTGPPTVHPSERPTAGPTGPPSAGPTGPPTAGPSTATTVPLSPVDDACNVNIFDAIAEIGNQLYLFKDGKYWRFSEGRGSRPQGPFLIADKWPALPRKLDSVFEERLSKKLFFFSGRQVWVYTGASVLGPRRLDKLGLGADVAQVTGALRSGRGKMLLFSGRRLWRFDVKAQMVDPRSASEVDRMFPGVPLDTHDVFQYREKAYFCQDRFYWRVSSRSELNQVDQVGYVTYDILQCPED
Description for Collagenase 3: In vitro inhibition of Matrix metalloprotein 13

In turn, `CC#CCOc1ccc(S(=O)(=O)N(C)CCC(=O)NO)cc1` showed an inhibition at 3 µM in the data set with THP-1 [1] of 9%.
In the data set with THP-1 [2], `CC#CCOc1ccc(S(=O)(=O)N[C@H](C)C(=O)NO)cc1` registered an inhibition at 1 µM of 40%. Further, the 50% inhibitory concentration (IC50) was 4030 nM against Interstitial collagenase, 4 nM in data set [3], 195 nM against Collagenase 3 and 796 nM in data set [4]. In addition, the inhibition in vivo at 50 mg/kg with Mus musculus [5] was greater than 75%.
On to `CC#CCOc1ccc(S(=O)(=O)NC(C(=O)NO)C(C)(C)SCc2cccnc2)cc1` (stereo not given), for which at 1 µM the inhibition in the data set with THP-1 [2] was 49%. The IC50 against Interstitial collagenase amounted to 476 nM; in data set [3] it was 6 nM; on Collagenase 3 it was 8 nM; in data set [4], 130 nM.
Turning to `CC#CCOc1ccc(S(=O)(=O)N(C)[C@@H](C(=O)NO)c2ccc(OCCNC)cc2)cc1`, in the data set on THP-1 [2], the inhibition at 1 µM came to 87%. Further, the inhibition in vivo at 50 mg/kg in the data set with Mus musculus [5] is greater than 75%.
On to `CC#CCOc1ccc(S(=O)(=O)NCCC(=O)NO)cc1`, for which testing at 3 µM with THP-1 [1] gave an inhibition of 0%.
In turn, `CC#CCOc1ccc(S(=O)(=O)N[C@@H](C(=O)NO)c2ccc(OCCNC)cc2)cc1` registered an inhibition at 1 µM with THP-1 [2] of 48%. On Interstitial collagenase, half-maximal inhibition (IC50) required 10000 nM.
In turn, `CC#CCOc1ccc(S(=O)(=O)NCC(=O)NO)cc1` gave an inhibition at 1 µM with THP-1 [2] of 15%. In data set [6], the inhibition was 47%. Further, the IC50 in data set [3] came to 5 nM.
As to `C#CCNc1ccc(S(=O)(=O)N(C)CC(=O)NO)cc1`, on Interstitial collagenase, the IC50 is roughly 10000 nM.
Consider `CC#CCOc1ccc(S(=O)(=O)N[C@@H](C(=O)NO)C(C)O)cc1` (stereo not given in full), for which, in the data set with THP-1 [2], testing at 1 µM gave an inhibition of 50%. For the same compound, the IC50 on Interstitial collagenase was determined as 2470 nM; in data set [3], 10 nM; against Collagenase 3, 86 nM; in [4], 777 nM; in the data set filed under Homo sapiens it was 1000 nM. Besides, the bioavailability stood at 46% in data set [7], 17% in data set [8], 100% in data set [10] and 75% in data set [11]. Further, the Activity amounted to 20 mg/kg with Mus musculus [9] and 10 mg/kg in the data set on Mus musculus [13]. In the data set filed under Mus musculus [12], this compound returned an ED50 of 3 mg/kg.
In the data set on THP-1 [2], `CC#CCOc1ccc(S(=O)(=O)N(C)[C@H](C)C(=O)NO)cc1` registered an Inhibition of 60%. Further, the IC50 was 330 nM against Interstitial collagenase, 5 nM in data set [3], 28 nM at Collagenase 3 and 68 nM in data set [4].
Compound `CC#CCOc1ccc(S(=O)(=O)NC(C)(C)C(=O)NO)cc1` returned an inhibition at 1 µM in the data set on THP-1 [2] of 9%.
Turning to `CC#CCOc1ccc(S(=O)(=O)N(C)[C@@H](C(=O)NO)C(C)C)cc1`, at 1 µM the inhibition with THP-1 [2] was 79%. In addition, the IC50 was 259 nM against Interstitial collagenase, 15 nM in [3] and 38 nM against Collagenase 3.
`CC#CCOc1ccc(S(=O)(=O)NC(CSCc2cccnc2)C(=O)NO)cc1` (stereo not given) had an inhibition at 1 µM in the data set on THP-1 [2] of 56%. The IC50 at Interstitial collagenase is 1910 nM; in [3] it was 3 nM; at Collagenase 3 it was 28 nM; in data set [4], 160 nM.
`CC#CCOc1ccc(S(=O)(=O)N(CC(=O)NO)Cc2cccnc2)cc1`: in the data set with THP-1 [2], testing at 1 µM gave an inhibition of 45%.
`CC#CCOc1ccc(S(=O)(=O)N(C)C(C(=O)NO)C(C)(C)SCc2cccnc2)cc1` (stereo not given) had an inhibition at 1 µM in the data set with THP-1 [2] of 52%. Also, the results for the IC50 (in data set [3]; against Collagenase 3; in data set [4]) were 54 nM, 2 nM and 4 nM, respectively.
On to `CC#CCOc1ccc(S(=O)(=O)N(C)CC(=O)NO)cc1`, for which at 1 µM the inhibition in the data set with THP-1 [2] was 22%. In [3], this compound yielded an IC50 of 7 nM.
On to `CC#CCOc1ccc(S(=O)(=O)N[C@@H](C(=O)NO)C(C)(C)C)cc1`, for which the inhibition at 1 µM in the data set with THP-1 [2] was found to be 78%. Moreover, the inhibition in vivo at 50 mg/kg with Mus musculus [5] was greater than 75%.
Take `CC#CCOc1ccc(S(=O)(=O)N(C)C(CSCc2cccnc2)C(=O)NO)cc1` (stereo not given): the inhibition at 1 µM in the data set on THP-1 [2] was found to be 80%. Also, the IC50 on Collagenase 3 is 5 nM.
In the case of `CN(CC(=O)NO)S(=O)(=O)c1ccc(CCC#N)cc1`, the IC50 at Interstitial collagenase is greater than 10000 nM; at Collagenase 3, 207 nM; in [4], 74 nM. Moreover, the inhibition in [14] came out at 6%. In the data set with THP-1 [1], this compound gave an inhibition at 3 µM of 7%.
Regarding `CC#CCOc1ccc(S(=O)(=O)N[C@@H](C(=O)NO)C(C)C)cc1`, at 1 µM the inhibition with THP-1 [2] was 58%. Besides, the IC50 against Interstitial collagenase came out at 2960 nM; in data set [3] it was 10 nM; against Collagenase 3 it was 18 nM; in data set [4], 42 nM.
